What was measured:
[1] = Partition coefficient, log P of the compound by shake flask method; assay type: physicochemical; settings: octanol/water
Brain [2] = test: Drug uptake in anesthetized rhesus monkey brain at 1.5 ug measured for 122 mins by PET analysis; assay type: ADME, tissue-based, Macaca mulatta; settings: in vivo
Brain [3] = test: Drug uptake in anesthetized rhesus monkey brain at 1.7 ug measured for 122 mins by PET analysis; assay type: ADME, tissue-based, Macaca mulatta; settings: in vivo

Row | logP [1] | Drug uptake (Brain [2]) | Drug uptake (Brain [3]) | Compound
1 | 3.4 | Not Active | – | [11CH3]n1c(SCC(=O)N2CCC[C@H]2C(=O)Nc2ccccc2-c2ccccc2)nc2ccccc21
2 | 2.8 | – | Not Active | [11CH3]n1c(CCC(=O)N2CCC[C@H]2C(=O)Nc2ccccc2-c2ccccc2)nc2ccccc21
